{"source": "patent US8435980B2", "about": "(AbbVie Inc., priority 2009, dated 2013)", "data": [{"target": "T1, Cdc7 (BEV coexpressed huCDC7/DBF4) (Homo sapiens, UniProt O00311)", "T1 construct": "made in house; host or cells: BEV (baculovirus expression vector) co-expression; insect cells are implied but no cell line is named", "T1 sequence (O00311 whole entry)": "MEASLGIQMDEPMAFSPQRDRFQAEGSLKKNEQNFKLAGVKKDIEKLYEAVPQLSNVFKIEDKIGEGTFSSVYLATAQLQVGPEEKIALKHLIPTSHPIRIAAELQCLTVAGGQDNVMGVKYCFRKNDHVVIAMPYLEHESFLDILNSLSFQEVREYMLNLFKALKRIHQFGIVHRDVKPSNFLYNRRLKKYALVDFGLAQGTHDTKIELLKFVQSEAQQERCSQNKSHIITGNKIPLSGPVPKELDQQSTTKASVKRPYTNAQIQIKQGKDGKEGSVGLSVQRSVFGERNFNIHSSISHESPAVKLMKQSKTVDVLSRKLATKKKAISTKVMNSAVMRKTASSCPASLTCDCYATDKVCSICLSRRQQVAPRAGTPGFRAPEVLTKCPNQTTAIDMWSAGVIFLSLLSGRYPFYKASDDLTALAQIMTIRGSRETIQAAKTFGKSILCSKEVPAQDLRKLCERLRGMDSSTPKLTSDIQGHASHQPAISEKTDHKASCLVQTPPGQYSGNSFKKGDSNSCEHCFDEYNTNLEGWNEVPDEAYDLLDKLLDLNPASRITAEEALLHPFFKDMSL", "T1 sequence (Q9UBU7 whole entry partner)": "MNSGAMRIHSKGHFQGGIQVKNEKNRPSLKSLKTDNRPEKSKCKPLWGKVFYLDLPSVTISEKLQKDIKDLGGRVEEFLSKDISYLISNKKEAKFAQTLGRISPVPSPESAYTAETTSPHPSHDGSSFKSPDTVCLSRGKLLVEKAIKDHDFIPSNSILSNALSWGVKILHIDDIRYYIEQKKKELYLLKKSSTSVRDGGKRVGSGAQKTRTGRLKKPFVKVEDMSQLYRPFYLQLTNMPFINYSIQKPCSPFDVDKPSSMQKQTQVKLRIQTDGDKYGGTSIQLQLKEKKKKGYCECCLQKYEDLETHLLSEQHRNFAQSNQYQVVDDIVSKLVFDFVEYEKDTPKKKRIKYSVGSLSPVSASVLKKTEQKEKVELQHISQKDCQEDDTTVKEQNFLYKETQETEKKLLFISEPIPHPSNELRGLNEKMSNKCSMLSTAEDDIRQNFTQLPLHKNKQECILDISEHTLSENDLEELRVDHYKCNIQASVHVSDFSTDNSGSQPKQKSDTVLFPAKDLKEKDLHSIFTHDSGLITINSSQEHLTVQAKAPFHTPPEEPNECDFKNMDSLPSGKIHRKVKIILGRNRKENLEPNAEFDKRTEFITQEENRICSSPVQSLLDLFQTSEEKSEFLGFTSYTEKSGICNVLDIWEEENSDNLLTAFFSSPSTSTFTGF", "test": "Cdc7 enzyme inhibition assay ([33P]ATP, biotinylated peptide substrate, FlashPlate)", "format": "biochemical", "conditions": "not given", "description": "(§1) Cdc7 (BEV coexpressed huCDC7/DBF4) is prepared internally. Cdc7 assays are conducted as follows with final concentrations as listed. […] Reactions are quenched after 1 hr by the addition of 90 μL stop buffer (50 mM EDTA, 2M NaCl). […] (Ki) for exemplary compounds.", "units": {"Ki": "nM"}, "values": [{"compound": "Clc1cc(-c2c[nH]c3ncccc23)cc(N2CCCCC2)n1", "note": "[Example 4, 3-(2-chloro-6-piperidin-1-ylpyridin-4-yl)-1H-pyrrolo[2,3-b]pyridine]", "Ki": "10 to 100"}, {"compound": "CN(Cc1ccccc1)c1cc(-c2c[nH]c3ncccc23)cc(Cl)n1", "note": "[Example 5, N-benzyl-6-chloro-N-methyl-4-(1H-pyrrolo[2,3-b]pyridin-3-yl)pyridin-2-amine]", "Ki": "< 10"}, {"compound": "Clc1cc(-c2c[nH]c3ncccc23)nc(NCc2ccccc2)n1", "note": "[Example 46, N-benzyl-4-chloro-6-(1H-pyrrolo[2,3-b]pyridin-3-yl)pyrimidin-2-amine]", "Ki": "10 to 100"}, {"compound": "Clc1cc(-c2c[nH]c3ncccc23)cc(NCC2CCNC2)n1", "note": "(centres unmarked) [Example 29, 6-chloro-N-(pyrrolidin-3-ylmethyl)-4-(1H-pyrrolo[2,3-b]pyridin-3-yl)pyridin-2-amine]", "Ki": "< 10"}, {"compound": "C=CCNc1cc(-c2c[nH]c3ncccc23)cc(Cl)n1", "note": "[Example 3, N-Allyl-6-chloro-4-(1H-pyrrolo[2,3-b]pyridin-3-yl)pyridin-2-amine]", "Ki": "< 10"}]}, {"target": "T1, Cdc7 (BEV coexpressed huCDC7/DBF4)", "test": "Cdc7 enzyme inhibition assay ([33P]ATP, biotinylated peptide substrate, FlashPlate)", "format": "biochemical", "conditions": "Table 3; enzyme inhibition data (Ki)", "description": "as §1", "units": {"Ki": "nM"}, "values": [{"compound": "CC(=O)NC1CCC(CC2CCC(Nc3cc(-c4c[nH]c5ncccc45)cc(Cl)n3)CC2)CC1", "note": "(centres unmarked) [Example 174, N-{4-[(4-{[6-chloro-4-(1H-pyrrolo[2,3-b]pyridin-3-yl)pyridin-2-yl]amino}cyclohexyl)methyl]cyclohexyl}acetamide]", "Ki": "< 10"}, {"compound": "O=C(NCc1ccccn1)c1cnc2[nH]cc(-c3cc(Cl)nc(NC4CCCCC4)c3)c2c1", "note": "[Example 242, 3-[2-chloro-6-(cyclohexylamino)pyridin-4-yl]-N-(pyridin-2-ylmethyl)-1H-pyrrolo[2,3-b]pyridine-5-carboxamide]", "Ki": "< 10"}, {"compound": "CC(=O)Nc1cc(-c2c[nH]c3ncccc23)cc(Cl)n1", "note": "[Example 310, N-[6-chloro-4-(1H-pyrrolo[2,3-b]pyridin-3-yl)pyridin-2-yl]acetamide]", "Ki": "< 10"}, {"compound": "O=C(NC1CCCC(Nc2cc(-c3c[nH]c4ncccc34)cc(Cl)n2)C1)c1cc[nH]n1", "note": "(centres unmarked) [Example 71, N-(3-{[6-chloro-4-(1H-pyrrolo[2,3-b]pyridin-3-yl)pyridin-2-yl]amino}cyclohexyl)-1H-pyrazole-3-carboxamide]", "Ki": "< 10"}, {"compound": "O=C(N[C@@H]1CCCC[C@H]1Nc1cc(-c2c[nH]c3ncccc23)cc(Cl)n1)C1CCN1", "note": "(relative stereo) [Example 120, N-[(trans)-2-{[6-chloro-4-(1H-pyrrolo[2,3-b]pyridin-3-yl)pyridin-2-yl]amino}cyclohexyl]azetidine-2-carboxamide]", "Ki": "< 10"}, {"compound": "O=C(Nc1cc(-c2c[nH]c3ncccc23)cc(Cl)n1)c1cccnc1", "note": "[Example 107, N-[6-chloro-4-(1H-pyrrolo[2,3-b]pyridin-3-yl)pyridin-2-yl]pyridine-3-carboxamide]", "Ki": "< 10"}, {"compound": "O=S(=O)(NC1CCCC(Nc2cc(-c3c[nH]c4ncccc34)cc(Cl)n2)C1)c1cccnc1", "note": "(centres unmarked) [Example 300, N-(3-{[6-chloro-4-(1H-pyrrolo[2,3-b]pyridin-3-yl)pyridin-2-yl]amino}cyclohexyl)pyridine-3-sulfonamide]", "Ki": "< 10"}, {"compound": "C[C@@H](C(=O)NC1CCCC(Nc2cc(-c3c[nH]c4ncccc34)cc(Cl)n2)C1)N(C)C", "note": "(stereo partly drawn) [Example 350, N-(3-{[6-chloro-4-(1H-pyrrolo[2,3-b]pyridin-3-yl)pyridin-2-yl]amino}cyclohexyl)-N~2~,N~2~-dimethyl-L-alaninamide]", "Ki": "< 10"}, {"compound": "CN(C)c1ccc(NC(=O)N[C@H]2CC[C@H](Nc3nc(Cl)cc(-c4c[nH]c5ncccc45)n3)CC2)cc1", "note": "[Example 471, 1-(trans-4-{[4-chloro-6-(1H-pyrrolo[2,3-b]pyridin-3-yl)pyrimidin-2-yl]amino}cyclohexyl)-3-[4-(dimethylamino)phenyl]urea]", "Ki": "< 10"}, {"compound": "CN1CCC(C2CCC(N(C)c3cc(-c4c[nH]c5ncccc45)cc(Cl)n3)CC2)CC1", "note": "(centres unmarked) [Example 185, 6-chloro-N-methyl-N-[4-(1-methylpiperidin-4-yl)cyclohexyl]-4-(1H-pyrrolo[2,3-b]pyridin-3-yl)pyridin-2-amine]", "Ki": "< 10"}, {"compound": "CCCNC(=O)NC1CCC(Nc2cc(-c3c[nH]c4ncccc34)cc(Cl)n2)CC1", "note": "(centres unmarked) [Example 62, 1-(4-{[6-chloro-4-(1H-pyrrolo[2,3-b]pyridin-3-yl)pyridin-2-yl]amino}cyclohexyl)-3-propylurea]", "Ki": "< 10"}, {"compound": "COc1cnc2[nH]cc(-c3cc(Cl)nc(N[C@H]4CC[C@H](NS(=O)(=O)C5CC5)CC4)c3)c2c1", "note": "[Example 218, N-(trans-4-{[6-chloro-4-(5-methoxy-1H-pyrrolo[2,3-b]pyridin-3-yl)pyridin-2-yl]amino}cyclohexyl)cyclopropanesulfonamide]", "Ki": "< 10"}, {"compound": "O=C(N[C@H]1CC[C@H](Nc2cc(-c3c[nH]c4ncccc34)cc(Cl)n2)CC1)C1CN(C2CCNCC2)C1", "note": "[Example 250, N-(trans-4-{[6-chloro-4-(1H-pyrrolo[2,3-b]pyridin-3-yl)pyridin-2-yl]amino}cyclohexyl)-1-(piperidin-4-yl)azetidine-3-carboxamide]", "Ki": "< 10"}, {"compound": "COc1ccc(-c2cnc3[nH]cc(-c4cc(Cl)nc(NC5CCCCC5)c4)c3c2)cn1", "note": "[Example 431, 6-chloro-N-cyclohexyl-4-[5-(6-methoxypyridin-3-yl)-1H-pyrrolo[2,3-b]pyridin-3-yl]pyridin-2-amine]", "Ki": "< 10"}, {"compound": "O=C(C1CC1)N1CCCC(CNc2cc(-c3c[nH]c4ncccc34)cc(Cl)n2)C1", "note": "(centres unmarked) [Example 316, [3-({[6-chloro-4-(1H-pynolo[2,3-b]pyridin-3-yl)pyridin-2-yl]amino}methyl)piperidin-1-yl](cyclopropyl)methanone]", "Ki": "< 10"}, {"compound": "Clc1cc(-c2c[nH]c3ncccc23)nc(N[C@H]2CC[C@H](NC3CCCC3)CC2)n1", "note": "[Example 477, trans-N-[4-chloro-6-(1H-pyrrolo[2,3-b]pyridin-3-yl)pyrimidin-2-yl]-N′-cyclopentylcyclohexane-1,4-diamine]", "Ki": "< 10"}, {"compound": "Clc1cc(-c2c[nH]c3ncccc23)cc(Nc2ccc(N3CCN(Cc4ccccn4)CC3)cc2)n1", "note": "[Example 449, 6-chloro-N-{4-[4-(pyridin-2-ylmethyl)piperazin-1-yl]phenyl}-4-(1H-pyrrolo[2,3-b]pyridin-3-yl)pyridin-2-amine]", "Ki": "< 10"}, {"compound": "CCS(=O)(=O)N[C@H]1CC[C@H](Nc2cc(-c3c[nH]c4ncccc34)cc(Cl)n2)CC1", "note": "[Example 312, N-(trans-4-{[6-chloro-4-(1H-pyrrolo[2,3-b]pyridin-3-yl)pyridin-2-yl]amino}cyclohexyl)ethanesulfonamide]", "Ki": "< 10"}, {"compound": "CC(=O)NCCS(=O)(=O)NC1CCCC(Nc2cc(-c3c[nH]c4ncccc34)cc(Cl)n2)C1", "note": "(centres unmarked) [Example 164, N-{2-[(3-{[6-chloro-4-(1H-pyrrolo[2,3-b]pyridin-3-yl)pyridin-2-yl]amino}cyclohexyl)sulfamoyl]ethyl}acetamide]", "Ki": "< 10"}, {"compound": "O=C(CN1CCN(c2ccncc2)CC1)N[C@H]1CC[C@H](Nc2cc(-c3c[nH]c4ncccc34)cc(Cl)n2)CC1", "note": "[Example 230, N-(trans-4-{[6-chloro-4-(1H-pyrrolo[2,3-b]pyridin-3-yl)pyridin-2-yl]amino}cyclohexyl)-2-[4-(pyridin-4-yl)piperazin-1-yl]acetamide]", "Ki": "< 10"}, {"compound": "O=C(N[C@H]1CC[C@H](Nc2cc(-c3c[nH]c4ncccc34)cc(Cl)n2)CC1)C1CCN1C1CCCC1", "note": "(relative stereo) [Example 136, N-(trans-4-{[6-chloro-4-(1H-pyrrolo[2,3-b]pyridin-3-yl)pyridin-2-yl]amino}cyclohexyl)-1-cyclopentylazetidine-2-carboxamide]", "Ki": "< 10"}]}]}
